Measurements published in ChEMBL document CHEMBL2046440, “C-Aryl 5a-carba-β-d-glucopyranosides as novel sodium glucose cotransporter 2 (SGLT2) inhibitors for the treatment of type 2 diabetes” (Bioorg Med Chem, 2012).
Calls of active or inactive are those of the source. The calls are words filed in the database; no cut-off is given here.

Assays:
Cytochrome P450 3A4 [1] = biological target: T1, Cytochrome P450 3A4 (Homo sapiens, UniProt P08684); test: Inhibition of CYP3A4 using BFC substrate in which compound added to reaction mixture simultaneously with BFC substrate by fluorometric assay; type: ADME
T1 sequence (P08684 whole entry): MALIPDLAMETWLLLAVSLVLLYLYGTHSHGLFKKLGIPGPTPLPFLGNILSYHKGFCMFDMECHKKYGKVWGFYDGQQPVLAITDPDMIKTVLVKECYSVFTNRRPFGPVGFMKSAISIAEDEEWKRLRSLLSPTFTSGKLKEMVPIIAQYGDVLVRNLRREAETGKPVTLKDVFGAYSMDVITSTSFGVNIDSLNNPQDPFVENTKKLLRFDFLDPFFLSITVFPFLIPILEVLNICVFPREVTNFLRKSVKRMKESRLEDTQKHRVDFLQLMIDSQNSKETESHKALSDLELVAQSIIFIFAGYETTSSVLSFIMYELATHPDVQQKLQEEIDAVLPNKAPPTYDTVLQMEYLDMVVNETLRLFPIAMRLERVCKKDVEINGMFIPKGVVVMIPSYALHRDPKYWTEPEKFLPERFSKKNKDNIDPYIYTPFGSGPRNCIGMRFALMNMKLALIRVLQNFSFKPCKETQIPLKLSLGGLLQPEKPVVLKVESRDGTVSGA

[2] = biological target: T2, Sodium/glucose cotransporter 2 (Homo sapiens, UniProt P31639); test: Inhibition of human SGLT2 expressed in CHO-K1 cells by [14C]AMG uptake assay; type: cell-based
T2 sequence (P31639 whole entry): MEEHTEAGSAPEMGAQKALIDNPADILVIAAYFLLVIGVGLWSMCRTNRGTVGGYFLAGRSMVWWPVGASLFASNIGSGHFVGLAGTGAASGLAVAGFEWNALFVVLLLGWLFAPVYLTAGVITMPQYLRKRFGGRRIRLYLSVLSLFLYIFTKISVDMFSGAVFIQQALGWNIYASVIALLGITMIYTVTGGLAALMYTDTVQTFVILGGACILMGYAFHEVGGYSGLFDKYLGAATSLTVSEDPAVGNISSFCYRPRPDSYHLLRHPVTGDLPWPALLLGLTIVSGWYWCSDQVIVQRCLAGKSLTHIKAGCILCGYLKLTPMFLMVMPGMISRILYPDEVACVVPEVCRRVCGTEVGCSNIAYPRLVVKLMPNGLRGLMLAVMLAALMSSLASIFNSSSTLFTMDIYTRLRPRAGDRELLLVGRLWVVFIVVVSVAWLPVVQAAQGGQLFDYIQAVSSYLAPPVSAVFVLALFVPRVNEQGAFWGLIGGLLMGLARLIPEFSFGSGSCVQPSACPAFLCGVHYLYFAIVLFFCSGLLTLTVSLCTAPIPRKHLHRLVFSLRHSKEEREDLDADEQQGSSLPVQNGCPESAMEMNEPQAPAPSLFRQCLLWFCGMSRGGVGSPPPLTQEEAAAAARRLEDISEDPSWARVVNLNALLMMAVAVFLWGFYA

Cytochrome P450 3A4 [3] = biological target: T1, Cytochrome P450 3A4; test: Inhibition of CYP3A4 using BFC substrate in which compound added to reaction mixture before addition of BFC substrate by fluorometric assay; type: ADME
Mus musculus [4] = test: Hypoglycemic effect in db/db mouse assessed as reduction in glucose AUC (0 to 8 hrs) at 30 mg/kg, po administered as single dose by hexokinase method relative to untreated control; type: functional; design: scale not given: the % may be the effect or the level left
Mus musculus [5] = test: Hypoglycemic effect in db/db mouse assessed as reduction in glucose level at 30 mg/kg, po measured 8 hrs post dose administered as single dose by hexokinase method; type: functional, organism-based; design: dose 30 mg/kg
[6] = Apparent oral clearance in db/db mouse at 10 mg/kg, po administered as single dose by LC-MS/MS system method; type: ADME, organism-based; design: dose 10 mg/kg, route oral; details: in vivo
[7] = (§1) Half life in db/db mouse at 10 mg/kg, po administered as single dose by LC-MS/MS system method; type: ADME, organism-based; design: dose 10 mg/kg, route oral; details: db/db, in vivo
[8] = (§2) Apparent volume of distribution during terminal phase in db/db mouse at 10 mg/kg, po administered as single dose by LC-MS/MS system method; type: ADME, organism-based; design: dose 10 mg/kg, route oral; details: db/db, in vivo, read-out: Vz/F
[9] = (§3) Cmax in db/db mouse at 10 mg/kg, po administered as single dose by LC-MS/MS system method; type: ADME, organism-based; design: dose 10 mg/kg, route oral; details: db/db, in vivo
[10] = Tmax in db/db mouse at 10 mg/kg, po administered as single dose by LC-MS/MS system method; type: ADME, organism-based; design: dose 10 mg/kg, route oral; details: in vivo
[11] = AUC (infinity) in db/db mouse at 10 mg/kg, po administered as single dose by LC-MS/MS system method; type: ADME, organism-based; design: time infinity, dose 10 mg/kg, route oral; details: plasma
Mus musculus [12] = test: Hypoglycemic effect in db/db mouse assessed as reduction in glucose level at 30 mg/kg, po measured 4 hrs post dose administered as single dose by hexokinase method; type: functional, organism-based; design: dose 30 mg/kg
Mus musculus [13] = test: as §1; type: ADME, organism-based; design: dose 10 mg/kg, route oral; details: in vivo
Mus musculus [14] = test: as §2; type: ADME, organism-based; design: dose 10 mg/kg, route oral; details: in vivo
Mus musculus [15] = test: as §3; type: ADME, organism-based; design: dose 10 mg/kg, route oral; details: in vivo
Mus musculus [16] = test: Hypoglycemic effect in db/db mouse assessed as reduction in glucose AUC (0 to 8 hrs) at 100 mg/kg, po administered as single dose by hexokinase method relative to untreated control; type: functional; design: scale not given: the % may be the effect or the level left
CYP3A4 = CYP3A4 (Homo sapiens, UniProt P08684); test: in vitro; details: probe BFC
Sequence of CYP3A4 (P08684 whole entry): as the sequence (P08684 whole entry) above
Description: Potency index, ratio of IC50 for CYP3A4 (unknown origin) using BFC substrate in which compound added to reaction mixture simultaneously with BFC substrate to IC50 for CYP3A4 using BFC substrate in which compound added to reaction mixture before addition of BFC substrate

Cytochrome P450 3A4 [17] = biological target: T1, Cytochrome P450 3A4; test: Inhibition of CYP3A4 using BFC substrate by fluorometric assay; type: ADME; details: TDE = time-dependent effect

SMILES | IC50 (Cytochrome P450 3A4 [1]) [nM] | IC50 [2] [nM] | IC50 (Cytochrome P450 3A4 [3]) [nM] | other results
CCc1ccc(Cc2ccc(OC)c([C@@H]3C[C@H](CO)[C@@H](O)[C@H](O)[C@H]3O)c2)cc1 | > 50000 | 12 | > 50000 | 
CCc1ccc(Cc2cc([C@@H]3C[C@H](CO)[C@@H](O)[C@H](O)[C@H]3O)ccc2OC)cc1 |  | 8.3 |  | 
CCc1ccc(Cc2cccc([C@@H]3C[C@H](CO)[C@@H](O)[C@H](O)[C@H]3O)c2)cc1 | > 50000 | 49 | > 50000 | 
CCc1ccc(Cc2cc([C@]3(O)C[C@H](CO)[C@@H](O)[C@H](O)[C@H]3O)ccc2OC)cc1 |  | 100 |  | 
CCOc1ccc(Cc2ccc(CC)cc2)cc1[C@@H]1C[C@H](CO)[C@@H](O)[C@H](O)[C@H]1O | 36600 | 19 | > 50000 | Activity (Mus musculus [4]): 42.6%; Activity (Mus musculus [5]): Active; CL/F [6]: 26.7 mL/min/kg; half-life [7]: 94.2 min; Vd/F [8]: 3.63 L/kg; Cmax [9]: 3680 ng/mL; Tmax [10]: 15 min; AUC(0-inf) [11]: 6240 ng·h/mL; Activity (Mus musculus [12]): Active
CCc1ccc(Cc2cc([C@]3(O)C[C@H](CO)[C@@H](O)[C@H](O)[C@H]3O)c(OC)cc2OC)cc1 | 29000 | 10 | > 50000 | 
CCc1ccc(Cc2ccc(C)c([C@]3(O)C[C@H](CO)[C@@H](O)[C@H](O)[C@H]3O)c2)cc1 |  | 170 |  | 
Cc1ccc([C@@H]2O[C@H](CO)[C@@H](O)[C@H](O)[C@H]2O)cc1Cc1ccc(-c2ccc(F)cc2)s1 [CANAGLIFLOZIN ANHYDROUS] |  | 6.7 |  | 
CCOC(=O)OC[C@H]1O[C@@H](Oc2ccccc2Cc2ccc(OC)cc2)[C@H](O)[C@@H](O)[C@@H]1O [SERGLIFLOZIN ETABONATE] |  |  |  | Activity (Mus musculus [5]): inactive; t1/2 (Mus musculus [13]): 49.2 min; Vz/F (Mus musculus [14]): 3.315 L/kg; Cmax (Mus musculus [15]): 3360 ng/mL; Tmax [10]: 15 min; AUC(0-inf) [11]: 2970 ng·h/mL; Activity (Mus musculus [12]): Active
CCc1ccc(Cc2ccc(C)c([C@@H]3C[C@H](CO)[C@@H](O)[C@H](O)[C@H]3O)c2)cc1 |  | 52 |  | 
COc1ccc(Cc2cccc([C@@H]3C[C@H](CO)[C@@H](O)[C@H](O)[C@H]3O)c2)cc1 | > 50000 | 73 | > 50000 | 
CCc1ccc(Cc2ccc(OC)c([C@]3(O)C[C@H](CO)[C@@H](O)[C@H](O)[C@H]3O)c2)cc1 |  | 14 |  | 
CCOc1ccc(Cc2ccc(CC)cc2)cc1[C@]1(O)C[C@H](CO)[C@@H](O)[C@H](O)[C@H]1O |  | 9.9 |  | Activity (Mus musculus [4]): 39.1%; Activity (Mus musculus [5]): inactive; Activity (Mus musculus [12]): Active
COc1ccc(Cc2ccccc2O[C@@H]2C[C@H](CO)[C@@H](O)[C@H](O)[C@H]2O)cc1 |  |  |  | t1/2 (Mus musculus [13]): 161 min; Vz/F (Mus musculus [14]): 12.586 L/kg; Cmax (Mus musculus [15]): 1640 ng/mL; Tmax [10]: 15 min; AUC(0-inf) [11]: 3070 ng·h/mL; Activity (Mus musculus [16]): 41.6%
CCc1ccc(Cc2cc([C@@H]3C[C@H](CO)[C@@H](O)[C@H](O)[C@H]3O)c(OC)cc2OC)cc1 | 25700 | 8.5 | 40300 | IC50 shift (CYP3A4): 0.6
OC[C@H]1C[C@@H](c2cccc(Cc3ccc(C4CC4)cc3)c2)[C@H](O)[C@@H](O)[C@@H]1O | 76000 | 11 | 33000 | IC50 shift (CYP3A4): 2.3; inhibition (INH) (Cytochrome P450 3A4 [17]): tde
